The results in this text go back to patent US20210122730A1, “GLUCOCORTICOID RECEPTOR MODULATORS” (ORIC Pharmaceuticals, Inc., priority 2017, published 2021).

In one data set the target is T1, GR (Homo sapiens, UniProt P04150).
T1 construct: expressed in transfected cells; host or cells: CHO-K1
T1 sequence (P04150 1-777): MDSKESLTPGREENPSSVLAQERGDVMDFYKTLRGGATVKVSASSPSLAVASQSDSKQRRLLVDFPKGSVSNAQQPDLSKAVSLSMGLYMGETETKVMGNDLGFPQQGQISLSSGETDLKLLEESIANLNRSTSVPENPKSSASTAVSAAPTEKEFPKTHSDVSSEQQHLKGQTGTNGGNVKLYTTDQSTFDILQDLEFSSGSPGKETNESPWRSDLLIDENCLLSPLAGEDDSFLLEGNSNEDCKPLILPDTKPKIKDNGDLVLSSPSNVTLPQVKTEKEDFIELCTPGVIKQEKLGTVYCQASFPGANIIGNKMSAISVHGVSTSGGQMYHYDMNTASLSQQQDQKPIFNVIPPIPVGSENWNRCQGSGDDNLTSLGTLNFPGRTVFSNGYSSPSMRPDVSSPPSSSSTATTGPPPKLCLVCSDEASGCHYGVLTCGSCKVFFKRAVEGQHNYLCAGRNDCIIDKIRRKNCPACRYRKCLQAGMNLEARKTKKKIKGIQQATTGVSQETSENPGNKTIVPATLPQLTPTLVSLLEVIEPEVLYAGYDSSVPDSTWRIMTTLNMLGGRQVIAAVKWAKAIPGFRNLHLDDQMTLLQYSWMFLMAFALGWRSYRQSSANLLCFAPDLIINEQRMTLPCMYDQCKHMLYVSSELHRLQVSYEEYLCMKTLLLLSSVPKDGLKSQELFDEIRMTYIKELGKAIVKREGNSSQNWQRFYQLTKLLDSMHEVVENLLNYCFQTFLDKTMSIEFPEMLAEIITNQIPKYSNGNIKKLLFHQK
Nature of the data set: In Vitro GR Luciferase Reporter Assay (antagonist mode, CHO-K1-GR-MMTV-Luc reporter cells). The format is cell-based. The note with it: antagonist mode, 10 nM Dexamethasone. Summed up:
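CHO-K1-GR-MMTV-Luc cells in phenol red-free DMEM with 10% CSS, stimulated with 10 nM dexamethasone (final) and treated with 8-point 1:5 compound dilutions for about 18-24 h at 37° C. Luciferase measured by OneGlo luminescence; IC50 derived for inhibition of GR activity.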

The next data set deals with T2, CYP2C8 (Homo sapiens, UniProt P10632).
T2 construct: Pooled human microsomes were obtained from Sekisui XenoTech, KS; tissue Sekisui XenoTech, KS; host or cells: pooled human liver microsomes
T2 sequence (P10632 1-490): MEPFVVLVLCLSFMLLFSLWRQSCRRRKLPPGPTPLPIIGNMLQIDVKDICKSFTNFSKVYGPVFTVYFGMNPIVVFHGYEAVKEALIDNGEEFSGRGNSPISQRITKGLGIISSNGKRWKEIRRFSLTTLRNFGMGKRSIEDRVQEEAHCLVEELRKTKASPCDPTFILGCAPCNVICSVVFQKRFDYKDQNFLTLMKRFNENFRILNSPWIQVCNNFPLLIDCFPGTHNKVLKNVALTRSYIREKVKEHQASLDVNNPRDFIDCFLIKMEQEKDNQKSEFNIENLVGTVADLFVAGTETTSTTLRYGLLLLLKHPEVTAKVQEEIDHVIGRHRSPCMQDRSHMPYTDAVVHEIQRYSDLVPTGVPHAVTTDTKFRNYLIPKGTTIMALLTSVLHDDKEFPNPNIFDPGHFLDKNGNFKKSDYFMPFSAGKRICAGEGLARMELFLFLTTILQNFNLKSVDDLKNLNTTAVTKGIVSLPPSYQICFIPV
As to the kind of experiment: CYP Inhibition Assay (CYP2C8, human liver microsomes, paclitaxel substrate). The data set is classed as in vitro ADME. Conditions: pH 7.4; pooled human liver microsomes 0.1 mg/mL, probe substrate paclitaxel. The procedure, abridged: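 Pooled human liver microsomes (0.1 mg/mL) in 50 mM potassium phosphate pH 7.4 with compound, started with 1 mM NADPH, 5 min at 37° C, duplicate.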

`Cn1cnc(S(=O)(=O)N(CC2CC2)[C@H]2CCC3=Cc4c(cnn4-c4ccc(F)cc4)C[C@]3(C(=O)c3ncc(C(F)(F)F)s3)C2)c1` [Example 217, N-(cyclopropylmethyl)-N-((4aS,6S)-1-(4-fluorophenyl)-4a-(5-(trifluoromethyl)thiazole-2-carbonyl)-4,4a,5,6,7,8-hexahydro-1H-benzo[f]indazol-6-yl)-1-methyl-1H-imidazole-4-sulfonamide] yielded an IC50 against GR not above 100 nM. At CYP2C8, the inhibition at 5 min lay in the range of 25 to 50%.

In the case of `Cn1cc(S(=O)(=O)N(C2CC2)[C@H]2CCC3=Cc4c(cnn4-c4ccc(F)cc4)C[C@]3(C(=O)c3ncc(C(F)(F)F)s3)C2)nn1` [Example 219, N-cyclopropyl-N-((4aS,6S)-1-(4-fluorophenyl)-4a-(5 (trifluoromethyl)thiazole-2-carbonyl)-4,4a,5,6,7,8-hexahydro-1H-benzo[f]indazol-6-yl)-1-methyl-1H-1,2,3-triazole-4-sulfonamide], on GR, the 50% inhibitory concentration (IC50) is not above 100 nM. Further, on CYP2C8, the inhibition at 5 min lay in the range of 25 to 50%.

On to `CC(C)N([C@H]1CCC2=Cc3c(cnn3-c3ccc(F)cc3)C[C@]2(C(=O)c2cc(C(F)(F)F)ccn2)C1)S(=O)(=O)c1cn(C)cn1` [Example 221, N-((4aS,6S)-1-(4-fluorophenyl)-4a-(4-(trifluoromethyl)picolinoyl)-4,4a,5,6,7,8-hexahydro-1H-benzo[f]indazol-6-yl)-N-isopropyl-1-methyl-1H-imidazole-4-sulfonamide], for which, on GR, the IC50 was not above 100 nM. On CYP2C8, this compound returned an inhibition at 5 min of 50 to 75%.

As for `Cn1cc(S(=O)(=O)N(C2CC2)[C@H]2CCC3=Cc4c(cnn4-c4ccc(F)cc4)C[C@]3(C(=O)c3cc(C(F)(F)F)ccn3)C2)nn1` [Example 222, N-cyclopropyl-N-((4aS,6S)-1-(4-fluorophenyl)-4a-(4-(trifluoromethyl)picolinoyl)-4,4a,5,6,7,8-hexahydro-1H-benzo[f]indazol-6-yl)-1-methyl-1H-1,2,3-triazole-4-sulfonamide], the IC50 at GR was not above 100 nM. Besides, the inhibition at 5 min against CYP2C8 lay in the range of 50 to 75%.

Regarding `O=C(c1cc(C(F)(F)F)ccn1)[C@]12Cc3cnn(-c4ccc(F)cc4)c3C=C1CC[C@H](N(C1CC1)S(=O)(=O)c1ccc(Cl)nc1)C2` [Example 223, 6-chloro-N-cyclopropyl-N-((4aS,6S)-1-(4-fluorophenyl)-4a-(4-(trifluoromethyl)picolinoyl)-4,4a,5,6,7,8-hexahydro-1H-benzo[f]indazol-6-yl)pyridine-3-sulfonamide], the IC50 on GR was not above 100 nM. The compound further returned an inhibition at 5 min against CYP2C8 of 25 to 50%.

Consider `Cn1ccc(S(=O)(=O)N(C2CC2)[C@H]2CCC3=Cc4c(cnn4-c4ccc(F)cc4)C[C@]3(C(=O)c3cc(F)ccn3)C2)n1` [Example 224, N-cyclopropyl-N-((4aS,6S)-1-(4-fluorophenyl)-4a-(4-fluoropicolinoyl)-4,4a,5,6,7,8-hexahydro-1H-benzo[f]indazol-6-yl)-1-methyl-1H-pyrazole-3-sulfonamide], for which the IC50 against GR was not above 100 nM. This compound came in with an inhibition at 5 min at CYP2C8 of 25 to 50%.

The compound `Cn1ccc(S(=O)(=O)N(C2CC2)[C@H]2CCC3=Cc4c(cnn4-c4ccc(F)cc4)C[C@]3(C(=O)c3cc(Cl)ccn3)C2)n1` [Example 225, N-((4aS,6S)-4a-(4-chloropicolinoyl)-1-(4-fluorophenyl)-4,4a,5,6,7,8-hexahydro-1H-benzo[f]indazol-6-yl)-N-cyclopropyl-1-methyl-1H-pyrazole-3-sulfonamide] came in with an IC50 at GR not above 100 nM. Also, the inhibition at 5 min on CYP2C8 fell in the range of 50 to 75%.

`Cn1cnc(S(=O)(=O)N(C2CCC2)[C@H]2CCC3=Cc4c(cnn4-c4ccc(F)cc4)C[C@]3(C(=O)c3cc(C(F)(F)F)ccn3)C2)c1` [Example 226, N-cyclobutyl-N-((4aS,6S)-1-(4-fluorophenyl)-4a-(4-(trifluoromethyl)picolinoyl)-4,4a,5,6,7,8-hexahydro-1H-benzo[f]indazol-6-yl)-1-methyl-1H-imidazole-4-sulfonamide] registered an IC50 against GR not above 100 nM. The inhibition at 5 min against CYP2C8 fell in the range of 50 to 75%.

`O=C(c1cc(F)ccn1)[C@]12Cc3cnn(-c4ccc(F)cc4)c3C=C1CC[C@H](N(C1CC1)S(=O)(=O)c1ccc(F)cc1)C2` [Example 228, N-cyclopropyl-4-fluoro-N-((4aS,6S)-1-(4-fluorophenyl)-4a-(4-fluoropicolinoyl)-4,4a,5,6,7,8-hexahydro-1H-benzo[f]indazol-6-yl)benzenesulfonamide] displayed an IC50 at GR not above 100 nM. On CYP2C8, this compound had an inhibition at 5 min of 50 to 75%.

Turning to `Cn1cc(S(=O)(=O)N(CC2CC2)[C@H]2CCC3=Cc4c(cnn4-c4ccc(F)cc4)C[C@]3(C(=O)c3cc(C(F)(F)F)ccn3)C2)nn1` [Example 229, N-(cyclopropylmethyl)-N-((4aS,6S)-1-(4-fluorophenyl)-4a-(4-(trifluoromethyl)picolinoyl)-4,4a,5,6,7,8-hexahydro-1H-benzo[f]indazol-6-yl)-1-methyl-1H-1,2,3-triazole-4-sulfonamide], the IC50 against GR is not above 100 nM. The same compound showed an inhibition at 5 min against CYP2C8 of 50 to 75%.

In turn, `Cn1cc(S(=O)(=O)N(C2CCC2)[C@H]2CCC3=Cc4c(cnn4-c4ccc(F)cc4)C[C@]3(C(=O)c3cc(C(F)(F)F)ccn3)C2)nn1` [Example 230, N-cyclobutyl-N-((4aS,6S)-1-(4-fluorophenyl)-4a-(4-(trifluoromethyl)picolinoyl)-4,4a,5,6,7,8-hexahydro-1H-benzo[f]indazol-6-yl)-1-methyl-1H-1,2,3-triazole-4-sulfonamide] returned a half-inhibitory concentration (IC50) on GR not above 100 nM. The compound also yielded an inhibition at 5 min against CYP2C8 of 50 to 75%.

For the compound `CCN([C@H]1CCC2=Cc3c(cnn3-c3ccc(F)cc3)C[C@]2(C(=O)c2cc(C(F)(F)F)ccn2)C1)S(=O)(=O)c1cn(C)nn1` [Example 231, N-ethyl-N-((4aS,6S)-1-(4-fluorophenyl)-4a-(4-(trifluoromethyl)picolinoyl)-4,4a,5,6,7,8-hexahydro-1H-benzo[f]indazol-6-yl)-1-methyl-1H-1,2,3-triazole-4-sulfonamide], at GR, the IC50 was not above 100 nM. The inhibition at 5 min against CYP2C8 was in the range of 25 to 50%.

`CC(C)N([C@H]1CCC2=Cc3c(cnn3-c3ccc(F)cc3)C[C@]2(C(=O)c2ncc(C(F)(F)F)s2)C1)S(=O)(=O)c1cnn(C)n1` [Example 233, N-((4aS,6S)-1-(4-fluorophenyl)-4a-(5-(trifluoromethyl)thiazole-2-carbonyl)-4,4a,5,6,7,8-hexahydro-1H-benzo[f]indazol-6-yl)-N-isopropyl-2-methyl-2H-1,2,3-triazole-4-sulfonamide] had an IC50 against GR not above 100 nM. Also, the inhibition at 5 min against CYP2C8 is 75 to 90%.

At GR, `CC(C)N([C@H]1CCC2=Cc3c(cnn3-c3ccc(F)cc3)C[C@]2(C(=O)c2cc(C(F)(F)F)ccn2)C1)S(=O)(=O)c1cnn(C)n1` [Example 234, N-((4aS,6S)-1-(4-fluorophenyl)-4a-(4-(trifluoromethyl)picolinoyl)-4,4a,5,6,7,8-hexahydro-1H-benzo[f]indazol-6-yl)-N-isopropyl-2-methyl-2H-1,2,3-triazole-4-sulfonamide] came in with a half-maximal inhibitory concentration (IC50) not above 100 nM. The same compound had an inhibition at 5 min against CYP2C8 of 75 to 90%.

As to `Cn1ncc(S(=O)(=O)N(CC(C)(C)O)[C@H]2CCC3=Cc4c(cnn4-c4ccc(F)cc4)C[C@]3(C(=O)c3ncc(C(F)(F)F)s3)C2)n1` [Example 236, N-((4aS,6S)-1-(4-fluorophenyl)-4a-(5-(trifluoromethyl)thiazole-2-carbonyl)-4,4a,5,6,7,8-hexahydro-1H-benzo[f]indazol-6-yl)-N-(2-hydroxy-2-methylpropyl)-2-methyl-2H-1,2,3-triazole-4-sulfonamide], the IC50 at GR was not above 100 nM. Moreover, the inhibition at 5 min at CYP2C8 was in the range of 50 to 75%.
